Laboratory results: patent US11021721B2, “Genetically engineered Pseudomonas strains capable of metabolizing ethylene glycol and its metabolic intermediates” (Alliance for Sustainable Energy, LLC, priority 2017, dated 2021)
Values joined by “and” are separate entries in the source; they are usually repeats but may differ in a detail not shown here. Identical values can stand only once.

How the values were obtained:
P. putida KT2440 [1] = assay: C-limited chemostat cultivation on acetate with co-feed of ethylene glycol or glyoxylate; assay type: cell-based, Pseudomonas putida KT2440; settings: for increase of biomass yield on acetate: 30 mM co-feed with 30 mM acetate, compared to control with only acetate; for reducing equivalents generated through co-metabolism: co-feed with acetate, assuming all glyoxylate is metabolized through the glyoxylate shunt
Procedure: FIG. 14 depicts co-feeding of P. putida KT2440 in C-limited chemostat cultivations on mineral medium with 30 mM acetate supplemented with 30 mM ethylene glycol (black), 30 mM glyoxylate (green), or no co-feed (grey). FIG. 14A depicts a comparison of biomass (OD600) at steady state. FIG. 14B depicts extracellular metabolites at steady state. […] FIG. 14C depicts flux analysis of redox equivalent-yielding metabolism of ethylene glycol (upper value) or glyoxylate (lower value) in mM gCDW^−1 h^−1. Cells were grown at a dilution rate of 0.2. Error bars indicate the deviation from the mean (n=2).
To investigate the applicability of ethylene glycol as a co-substrate, P. putida KT2440 was cultured in carbon-limited chemostat cultivations with acetate as carbon source, and either ethylene glycol or glyoxylate as an energy source. Acetate was chosen because it induces the glyoxylate shunt enzymes.
Energy and redox equivalent homeostasis is essential for efficient growth of a bacterial cell.

P. putida KT2440 [2] = assay: Competitive inhibition assay, glycolaldehyde and glyoxal full-factorial growth test (Bioscreen C); assay type: cell-based, Pseudomonas putida KT2440
Procedure: FIG. 13 depicts synergistic inhibitory effect of glycolaldehyde and glyoxal. Growth assays were conducted in 100 well plates in the Bioscreen C MBR analyzer. Individual wells of the plate were filled with 200 μL of M9 medium-containing 20 mM glucose and the respective concentration of glycolaldehyde and glyoxal according to a 3-level full-factorial design (Table 3), growth rates expressed as means±SEM (n=3). Bars labeled with different letters indicate statistical significance of different runs (p<0.05; one-way ANOVA followed by Tukey's post hoc honest significance difference test).
Toxicity tests and competitive inhibition assays were performed using Bioscreen C MBR analyzers (Growth Curves US, Piscataway, N.J.). For toxicity tests, overnight cultures of P. putida KT2440 were grown in M9 medium containing 20 mM glucose starting at an OD600 of 0.05-0.1 at 30° C. with shaking at 225 rpm in baffled shake flasks until the OD600 reached about 1.0-1.5. Cells were subsequently concentrated by centrifugation and inoculated into wells of Bioscreen C microplates at an initial OD600=0.05. Each well contained a total volume of […] M9 medium, 20 mM glucose, and inhibitors at various concentrations. Incubations were performed at 30° C. with maximum shaking. Absorbance readings were taken every 15 min. For competitive inhibition assays, individual wells of the plate were filled with 200 μL of M9 medium containing 20 mM glucose and a respective concentration of glycolaldehyde and glyoxal according to full-factorial test run results of which are presented in Table 3 and depicted in graphical form in FIG. 13. Initial OD600 was set at 0.1 by using an overnight culture of wild type P. putida KT2440. Samples were incubated as described above. Operation of the Bioscreen C MBR and collection of turbidity measurements (OD420-580) were computer automated with EZ Experiment.
The toxicity effects of ethylene glycol, glyoxylate, glycolaldehyde, glyoxal and oxalate on P. putida KT2440 were examined by monitoring growth in the Bioscreen C instrument (a microplate reader which monitors turbidity over time) in the presence of M9 minimal medium containing 20 mM glucose and the inhibitor, see FIG. 20. The average OD of at least 5 wells was plotted in FIG. 9. […] Glyoxal, an oxidation product of glycolaldehyde, is also very inhibitory to P. putida KT2440 growth at a 5 mM concentration where a long lag phase is observed. At 7.5 mM, glyoxal is lethal to the cells. Therefore, glycolaldehyde and glyoxal are intermediate metabolites which result in ethylene glycol toxicity on P. putida KT2440. Glycolaldehyde exerts combinational inhibitory effect with other compounds, such as 5-HMF, furfural, and methylglyoxal. The combinational inhibitory effect of glycolaldehyde and glyoxal was determined by running three level full-factorial growth experiments, see FIG. 13 and Table 3.

P. putida KT2440 [3] = assay: Toxicity tests in Bioscreen C: growth in M9 minimal medium with 20 mM glucose and inhibitor; assay type: cell-based, Pseudomonas putida KT2440; settings: 20 mM glucose
Procedure: Toxicity tests and competitive inhibition assays were performed using Bioscreen C MBR analyzers (Growth Curves US, Piscataway, N.J.). For toxicity tests, overnight cultures of P. putida KT2440 were grown in M9 medium containing 20 mM glucose starting at an OD600 of 0.05-0.1 at 30° C. with shaking at 225 rpm in baffled shake flasks until the OD600 reached about 1.0-1.5. Cells were subsequently concentrated by centrifugation and inoculated into wells of Bioscreen C microplates at an initial OD600=0.05. Each well contained a total volume of 300 M9 medium, 20 mM glucose, and inhibitors at various concentrations. Incubations were performed at 30° C. with maximum shaking. Absorbance readings were taken every 15 min. […] Initial OD600 was set at 0.1 by using an overnight culture of wild type P. putida KT2440. Samples were incubated as described above. Operation of the Bioscreen C MBR and collection of turbidity measurements (OD420-580) were computer automated with EZ Experiment.
Growth curves were obtained from Bioscreen C analyzers (Growth Curves US, Piscataway, N.J.). Overnight cultures of P. putida KT2440 were grown in M9 medium containing 20 mM glucose starting at an OD600 of 0.05-0.1, 30° C., 225 rpm (baffled shake flask) until the OD600 reached ˜1.0-1.5. Cells were concentrated by centrifugation and inoculated into wells of Bioscreen C microplates containing various inhibitors and concentrations in the presence of 20 mM glucose at and additional OD600=0.05 in a total volume of 300 μL. Incubations were performed at 30° C. and absorbance readings were taken every 15 min. Operation of the Bioscreen C and collection of turbidity measurements (OD420-580) were computer automated with EZ Experiment. Data was collected and exported to Microsoft Excel spreadsheets for analysis.

P. putida KT2440 [4] = settings: on glucose, co-feed of formate, similar conditions; cited from earlier work
[5] = molecular target: tartronate semialdehyde reductase (GlxR); settings: cited from earlier work

Compound: OCCO [Ethylene glycol, ethylene glycol]
- increase of biomass yield on acetate (P. putida KT2440 [1]): 29.6±1.1%
- reducing equivalents generated through co-metabolism (P. putida KT2440 [1]): 27.3±2.6 mmol (g CDW)^−1 h^−1

Compound: O=CCO [Glycolaldehyde, glycolaldehyde]
- Growth Rate (P. putida KT2440 [2]; in the presence of 2 mM glycolaldehyde): 0.22 h⁻¹ and 0.291 ± 0.001 h⁻¹
- Growth Rate (P. putida KT2440 [2]; run 13: glycolaldehyde 1.0 mM, glyoxal 0 mM): 0.281 h⁻¹
- Growth Rate (P. putida KT2440 [2]; run 14: glycolaldehyde 1.5 mM, glyoxal 0 mM): 0.221 h⁻¹
- Growth Rate (P. putida KT2440 [2]; run 15: glycolaldehyde 2 mM, glyoxal 0 mM): 0.218 h⁻¹
- concentration that completely inhibited growth (P. putida KT2440 [3]): 4000 µM
- concentration that inhibits growth (P. putida KT2440 [3]): 3000 µM

Compound: O=CC=O [Glyoxal, glyoxal]
- Growth Rate (P. putida KT2440 [2]; in the presence of 2 mM glyoxal): 0.25 h⁻¹ and 0.297 ± 0.001 h⁻¹
- Growth Rate (P. putida KT2440 [2]; run 1: glycolaldehyde 0 mM, glyoxal 1.0 mM): 0.297 h⁻¹
- Growth Rate (P. putida KT2440 [2]; run 2: glycolaldehyde 0 mM, glyoxal 1.5 mM): 0.280 h⁻¹
- Growth Rate (P. putida KT2440 [2]; run 3: glycolaldehyde 0 mM, glyoxal 2.0 mM): 0.246 h⁻¹
- concentration inhibitory to growth with long lag phase (P. putida KT2440 [3]): 5000 µM
- lethal concentration (P. putida KT2440 [3]): 7.5 mM

Compound: O=CO [formate]
- reducing equivalents at maximal achievable biomass yield (P. putida KT2440 [4]): 7.6±0.9 mmol (g CDW)^−1 h^−1

Compound: O=C(O)CO [glycolate]
- Ki ([5]; inhibition of GlxR): 3000 µM

Compound: O=CC(=O)O [glyoxylate]
- increase of biomass yield on acetate (P. putida KT2440 [1]): 22.2±8.2%
- reducing equivalents generated through co-metabolism (P. putida KT2440 [1]): 14.4±0.5 mmol (g CDW)^−1 h^−1

Compound: O=C(O)C(=O)CO [hydroxypyruvate]
- maximal velocity as GlxR substrate, fold lower than tartronate semialdehyde [5]: 10 fold

Compound: O=C([O-])C(=O)[O-].[Na+].[Na+] [sodium oxalate]
- concentration not significantly inhibitory to growth (P. putida KT2440 [3]): up to 50 mM
